Bounds are passed on as bounds.

T1 sequence (P05121 24-402): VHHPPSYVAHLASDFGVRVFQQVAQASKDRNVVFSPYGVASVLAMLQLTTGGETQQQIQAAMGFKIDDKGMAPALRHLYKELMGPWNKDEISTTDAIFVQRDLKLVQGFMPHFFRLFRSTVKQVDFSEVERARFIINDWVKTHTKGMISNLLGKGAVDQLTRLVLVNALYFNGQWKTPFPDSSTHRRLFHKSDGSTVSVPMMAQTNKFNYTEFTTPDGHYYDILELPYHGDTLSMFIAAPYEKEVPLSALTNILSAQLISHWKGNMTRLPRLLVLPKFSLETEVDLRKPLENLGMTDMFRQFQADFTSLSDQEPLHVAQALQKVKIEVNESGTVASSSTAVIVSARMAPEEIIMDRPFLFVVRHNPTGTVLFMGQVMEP

One test concerns the target T1, recombinant human PAI-1 (Homo sapiens, UniProt P05121). Nature of the test: PAI-1 inhibitory activity, Test Method A (tPA fluorogenic substrate, Tris buffer pH8.0, 37 C). The test is classed as biochemical. Conditions: 25 μM test compound; Test Method A.
Regarding `CC(C)C1=NN(c2ccc(Cl)c(Cl)c2)C(=O)C1=Cc1cc(O)ccc1O` [compound 519], the “Inhibitory Ratio at 25 μM (%)” value is given as 80%.
Take `O=C1C(=Cc2cc(Br)ccc2O)C(c2ccc(O)cc2)=NN1c1ccc(Cl)cc1` [compound 520, 4-(2-Hydroxy-5-bromobenzylidene)-1-(4-chlorophenyl)-3-(4-hydroxyphenyl)-2-pyrazolin-5-one]: the “Inhibitory Ratio at 25 μM (%)” value was over 99%.
On to `COCC1=NN(c2cc(Cl)cc(Cl)c2)C(=O)C1=Cc1cc(Br)ccc1O` [compound 521, 4-(2-Hydroxy-5-bromobenzylidene)-1-(3,5-dichlorophenyl)-3-methoxymethyl-2-pyrazolin-5-one], for which the “Inhibitory Ratio at 25 μM (%)” value is recorded as over 99%.
Regarding `COCC1=NN(c2cc(Cl)cc(Cl)c2)C(=O)C1=Cc1cc(O)c(O)cc1O` [compound 522], the “Inhibitory Ratio at 25 μM (%)” value was over 99%.
As to `COCC1=NN(c2cc(Cl)cc(Cl)c2)C(=O)C1=Cc1ccccc1O` [compound 523], the “Inhibitory Ratio at 25 μM (%)” value is recorded as over 99%.
On the same count and under the same terms, the figure for `COCC1=NN(c2cc(Cl)cc(Cl)c2)C(=O)C1=Cc1cc(C=Cc2ccccc2)ccc1O` [compound 524] is over 99%; for `CC(C)C1=NN(c2cc(Cl)cc(Cl)c2)C(=O)C1=Cc1cc(C=Cc2ccccc2)ccc1O` [compound 525] it is over 99%.
On to `CC(C)C1=NN(c2cc(Cl)cc(Cl)c2)C(=O)C1=Cc1cc(Br)ccc1O` [compound 526], for which the “Inhibitory Ratio at 25 μM (%)” value is reported as over 99%.
For `COCC1=NN(c2cc(Cl)cc(Cl)c2)C(=O)C1=Cc1ccc(Oc2ccccc2)cc1` [compound 527], the “Inhibitory Ratio at 25 μM (%)” value was found to be 59%.
With `COc1cc(Br)cc(C=C2C(=O)N(c3cc(Cl)cc(Cl)c3)N=C2C(C)C)c1O` [compound 528], the “Inhibitory Ratio at 25 μM (%)” value is listed as over 99%.
The same measure, in the same setting: the figure for `CC(C)C1=NN(c2cc(Cl)cc(Cl)c2)C(=O)C1=Cc1cc(Br)cc(O)c1O` [compound 529] is over 99%; for `O=C1C(=Cc2cc(C=Cc3ccccc3)ccc2O)C(c2ccc(O)cc2)=NN1c1ccc(Cl)cc1` [compound 530] it is over 99%.
Consider `CC(C)C1=NN(c2ccc([N+](=O)[O-])cc2)C(=O)C1=Cc1cc(C=Cc2ccccc2)ccc1O` [compound 531, 4-(21-Hydroxy-5-styrylbenzylidene)-1-(4-nitrophenyl)-3-isopropyl-2-pyrazolin-5-one], for which the “Inhibitory Ratio at 25 μM (%)” value is 50%.
As to `COc1ccc(C=Cc2ccccc2)cc1C=C1C(=O)N(c2ccc([N+](=O)[O-])cc2)N=C1C(C)C` [compound 532, 4-(2-Methoxy-5-styrylbenzylidene)-1-(4-nitrophenyl)-3-isopropyl-2-pyrazolin-5-one], the “Inhibitory Ratio at 25 μM (%)” value came out at 78%.
Regarding `CC1=NN(c2ccc([N+](=O)[O-])cc2)C(=O)C1=Cc1cc(C=Cc2ccccc2)ccc1O` [compound 533], the “Inhibitory Ratio at 25 μM (%)” value is on record as over 99%.
On the same count and under the same terms, the figure for `CC(C)C1=NN(c2ccc(C(=O)O)cc2)C(=O)C1=Cc1cc(C=Cc2ccccc2)ccc1O` [compound 534] is 64%; for `COc1ccc(C=Cc2ccccc2)cc1C=C1C(=O)N(c2ccc(C(=O)O)cc2)N=C1C(C)C` [compound 535] it is 75%.
For the molecule `CC(C)C1=NN(c2ccc(C(=O)O)cc2)C(=O)C1=Cc1ccc(C=Cc2ccccc2)cc1` [compound 536], the “Inhibitory Ratio at 25 μM (%)” value was over 99%.
The same measure, in the same setting: under `CCOC1=NN(c2ccc([N+](=O)[O-])cc2)C(=O)C1=Cc1cc(C=Cc2ccccc2)ccc1OC` [compound 537] stands 66%.
As for `COCC1=NN(c2ccc([N+](=O)[O-])cc2)C(=O)C1=Cc1cc(C=Cc2ccccc2)ccc1O` [compound 538, 4-(2-Hydroxy-5-styrylbenzylidene)-1-(4-nitrophenyl)-3-methoxymethyl-2-pyrazolin-5-one], the “Inhibitory Ratio at 25 μM (%)” value is recorded as over 99%.
Regarding `COc1cc(C=C2C(=O)N(c3cc(Cl)cc(Cl)c3)N=C2C(C)C)cc(Br)c1O` [compound 539, 4-(3-Methoxy-4-hydroxy-5-bromobenzylidene)-1-(3,5-dichlorophenyl)-3-isopropyl-2-pyrazolin-5-one], the “Inhibitory Ratio at 25 μM (%)” value was determined as 80%.
Same read-out and setting: the figure for `CC(C)C1=NN(c2cc(Cl)cc(Cl)c2)C(=O)C1=Cc1cc(O)c(O)c(Br)c1` [compound 540] is over 99%; for `CCOC1=NN(c2ccc([N+](=O)[O-])cc2)C(=O)C1=Cc1cc(C=Cc2ccccc2)ccc1O` [compound 541, 4-(2-hydroxy-5-styrylbenzylidene)-1-(4-nitrophenyl)-3-ethoxy-2-pyrazolin-5-one] it is over 99%; for `CCOC1=NN(c2ccc([N+](=O)[O-])cc2)C(=O)C1=Cc1cc(C=Cc2ccccc2)ccc1O[Si](C)(C)C(C)(C)C` [compound 543] it is over 99%.
On to `CC(C)C1=NN(c2ccc(C=Cc3ccccn3)cc2)C(=O)C1=Cc1cc(C=Cc2ccccc2)ccc1O` [compound 544, 4-(2-Hydroxy-5-styrylbenzylidene)-1-{4-[2-(pyridin-2-yl)vinyl]phenyl}-3-isopropyl-2-pyrazolin-5-one], for which the “Inhibitory Ratio at 25 μM (%)” value was determined as 41%.
Take `CC(C)C1=NN(c2ccc(C=Cc3ccccn3)cc2)C(=O)C1=Cc1cc(O)c(O)cc1O` [compound 545]: the “Inhibitory Ratio at 25 μM (%)” value is on record as 74%.
Take `CCOC1=NN(c2ccc([N+](=O)[O-])cc2)C(=O)C1=Cc1c(O)ccc2ccccc12` [compound 546]: the “Inhibitory Ratio at 25 μM (%)” value came out at 96%.
On to `CCOC1=NN(c2ccc([N+](=O)[O-])cc2)C(=O)C1=Cc1c2ccccc2cc2ccccc12` [compound 547], for which the “Inhibitory Ratio at 25 μM (%)” value was found to be 62%.
As to `CCOC1=NN(c2ccc([N+](=O)[O-])cc2)C(=O)C1=Cc1cc(C(C)(C)C)ccc1O` [compound 548], the “Inhibitory Ratio at 25 μM (%)” value turned out to be 32%.
With `CCOC1=NN(c2ccc([N+](=O)[O-])cc2)C(=O)C1=Cc1c(O)cccc1OC` [compound 550, 4-(2-hydroxy-6-methoxybenzylidene)-1-(4-nitrophenyl)-3-ethoxy-2-pyrazolin-5-one], the “Inhibitory Ratio at 25 μM (%)” value was determined as 66%.
In the case of `CCOC1=NN(c2ccc([N+](=O)[O-])cc2)C(=O)C1=Cc1c(Br)ccc(O)c1O` [compound 551], the “Inhibitory Ratio at 25 μM (%)” value is given as 75%.
As to `CCOC1=NN(c2ccc([N+](=O)[O-])cc2)C(=O)C1=Cc1c(O)cccc1O` [compound 552], the “Inhibitory Ratio at 25 μM (%)” value was 95%.
The same measure, in the same setting: under `CC(C)C1=NN(Cc2ccc(Cl)c(Cl)c2)C(=O)C1=Cc1cc(O)c(O)cc1O.N=C(N)NCCC[C@H](N)C(=O)O.N=C(N)NCCC[C@H](N)C(=O)O.N=C(N)NCCC[C@H](N)C(=O)O` [compound 553, tri(L-(+)-arginine) salt of 4-(2,4,5-trihydroxybenzylidene)-1-(3,4-dichlorobenzyl)-3-isopropyl-2-pyrazolin-5-one] stands over 99%.
For `CC(C)C1=NN(Cc2ccc(Cl)c(Cl)c2)C(=O)C1=Cc1cc(O)c(O)cc1O.N=C(N)NCCC[C@H](N)C(=O)O.N=C(N)NCCC[C@H](N)C(=O)O` [compound 554, di(L-(+)-arginine) salt of 4-(2,4,5-trihydroxybenzylidene)-1-(3,4-dichlorobenzyl)-3-isopropyl-2-pyrazolin-5-one], the “Inhibitory Ratio at 25 μM (%)” value is reported as over 99%.
Turning to `CC(C)C1=NN(c2cc(Cl)cc(Cl)c2)C(=O)C1=Cc1cc(O)c(O)cc1Br` [compound 556, 4-(2-Bromo-4,5-dihydroxybenzylidene)-1-(3,5-dichlorophenyl)-3-isopropyl-2-pyrazolin-5-one], the “Inhibitory Ratio at 25 μM (%)” value is over 99%.
Regarding `CCOC1=NN(c2ccc([N+](=O)[O-])cc2)C(=O)C1=Cc1cc(O)c(O)cc1Br` [compound 557, 4-(2-Bromo-4,5-dihydroxybenzylidene)-1-(4-nitrophenyl)-3-ethoxy-2-pyrazolin-5-one], the “Inhibitory Ratio at 25 μM (%)” value was 82%.
`CC(C)C1=NN(c2ccc(Cl)c(Cl)c2)C(=O)C1=Cc1cc(O)ccc1[N+](=O)[O-]` [compound 558]: the “Inhibitory Ratio at 25 μM (%)” value is over 99%.
On to `COc1cc(C=C2C(=O)N(c3ccc(Cl)c(Cl)c3)N=C2C(C)C)cc(C(=O)O)c1O` [compound 559], for which the “Inhibitory Ratio at 25 μM (%)” value was over 99%.
Same read-out and setting: the figure for `CCN(CC)c1ccc(O)c(C=C2C(=O)N(c3ccc(Cl)c(Cl)c3)N=C2C(C)C)c1` [compound 560] is over 99%; for `COc1cc(C=C2C(=O)N(c3ccc(Cl)c(Cl)c3)N=C2C(C)C)cc([N+](=O)[O-])c1O` [compound 561] it is 91%.

The test is the same for the next values; noted with them: 50% inhibitory concentration of PAI-1 activity, according to the aforementioned method.
Turning to `O=C1SC(=Cc2cccc(O)c2O)C(=O)N1Cc1cccc(Cl)c1Cl` [compound 18, 5-(2,3-Dihydroxybenzylidene)-3-(2,3-dichlorobenzyl)thiazolidine-2,4-dione], the IC50 – broadly, the concentration that inhibits the measured activity by half – is 0.38 µM.
Same read-out and setting: under `O=C1SC(=Cc2cccc(O)c2O)C(=O)N1Cc1ccc(Cl)cc1Cl` [compound 22, 5-(2,3-Dihydroxybenzylidene)-3-(2,4-dichlorobenzyl)thiazolidine-2,4-dione] stands 0.44 µM.

The test is the same for the next values; noted with them: test compound 25 μM; Test Method A.
With `O=C1SC(=Cc2cccc(O)c2O)C(=O)N1Cc1cccc(Cl)c1Cl` [compound 18, 5-(2,3-Dihydroxybenzylidene)-3-(2,3-dichlorobenzyl)thiazolidine-2,4-dione], the “Inhibitory Ratio at 25 μM (%)” value was over 99%.
Turning to `O=C1SC(=Cc2cccc(O)c2O)C(=O)N1Cc1ccc(Cl)cc1Cl` [compound 22, 5-(2,3-Dihydroxybenzylidene)-3-(2,4-dichlorobenzyl)thiazolidine-2,4-dione], the “Inhibitory Ratio at 25 μM (%)” value is given as over 99%.

A further test deals with T1, recombinant human PAI-1. Nature of the test: Inhibition of complex formation of PAI-1 and tPA (SDS-PAGE). The following applies: 100 μM concentration. It counts as biochemical. As to the method: To a 2.5 μL solution obtained by diluting a DMSO solution of the test compound at 4-fold concentration of the test concentration with PBS(-), 5 μL of 150 nM recombinant human PAI-1 solution adjusted with a phosphate buffer (pH6.6, 0.05M Sodium Phosphate, 0.1 M NaCl, 1 mM EDTA) was added, and reacted for 5 minutes at 37° C. […] of 600 nM recombinant human one-chain tPA solution adjusted with PBS(-) was added, and further reacted for 5 minutes at 37° C. 10 μL of stop buffer (1.25 mM Tris-HCl pH6.8, 4% SDS, 0.01% BPB, 14% Glycerol) was added, heated for 30 seconds at 100° C., and then the total amount of 20 μL was applied to 10% SDS-PAGE gel electrophoresis. When the test compound was not added as being a control, a band of PAI-1-tPA complex was observed.
Consider `O=C1SC(=Cc2cccc(O)c2O)C(=O)N1Cc1cccc(Cl)c1Cl` [compound 18, 5-(2,3-Dihydroxybenzylidene)-3-(2,3-dichlorobenzyl)thiazolidine-2,4-dione], for which the “inhibition of the complex formation of PAI-1 and tPA observed with SDS-PAGE” value is reported as “completely inhibited”.
Still for that read-out and setting: the entry for `O=C1SC(=Cc2cccc(O)c2O)C(=O)N1Cc1ccc(Cl)cc1Cl` [compound 22, 5-(2,3-Dihydroxybenzylidene)-3-(2,4-dichlorobenzyl)thiazolidine-2,4-dione] is “completely inhibited”.
